The source of these data is the supplement of paper PMC10307832.

Common to all, as to experiment: relative viability (nuclei count vs DMSO), 5 days (fraction); higher = more cells survive
Compound in the assay “Ispinesib + Foretinib”: Cc1ccc(C(=O)N(CCCN)[C@@H](c2nc3cc(Cl)ccc3c(=O)n2Cc2ccccc2)C(C)C)cc1 [Ispinesib] + COc1cc2c(Oc3ccc(NC(=O)C4(C(=O)Nc5ccc(F)cc5)CC4)cc3F)ccnc2cc1OCCCN1CCOCC1 [Foretinib] (partner 0.25 µM)
The method in brief: (§1)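 After 5 days of treatment, lung cancer cells in 1536-well plates were fixed and stained in a single step (final 0.05% Triton X-100, 1% formaldehyde, 1 ug/ml Hoechst) and their nuclei counted on 4× images. Treatment had been applied by pin tool the day after seeding as one drug alone or as a fixed anchor-drug dose with five library-drug doses (not always all listed) in √10 steps. Relative viability is the nuclei count of treated wells divided by that of vehicle wells, and values are medians of duplicate plates.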

Compound in the assay “Ispinesib + OSI-027”: Cc1ccc(C(=O)N(CCCN)[C@@H](c2nc3cc(Cl)ccc3c(=O)n2Cc2ccccc2)C(C)C)cc1 [Ispinesib] + COc1cccc2cc(-c3nc([C@H]4CC[C@H](C(=O)O)CC4)n4ncnc(N)c34)[nH]c12 [OSI-027] (partner 0.5 µM)
Summed up:
as §1

Compound in the assay “Linsitinib + Tozasertib”: C[C@]1(O)C[C@@H](c2nc(-c3ccc4ccc(-c5ccccc5)nc4c3)c3c(N)nccn32)C1 [Linsitinib] + Cc1cc(Nc2cc(N3CCN(C)CC3)nc(Sc3ccc(NC(=O)C4CC4)cc3)n2)n[nH]1 [Tozasertib] (partner 0.1 µM)
The method in brief: as §1

Compound in the assay “Ispinesib + AZD7762”: Cc1ccc(C(=O)N(CCCN)[C@@H](c2nc3cc(Cl)ccc3c(=O)n2Cc2ccccc2)C(C)C)cc1 [Ispinesib] + NC(=O)Nc1cc(-c2cccc(F)c2)sc1C(=O)N[C@H]1CCCNC1 [AZD7762] (partner 0.2 µM)
Summed up:
as §1

For SK-MES-1, the relative viability amounted to 1.01 with Ispinesib + Foretinib (first compound 0.001 µM); 1.02 with Ispinesib + Foretinib (first compound 0.003162 µM); 0.993 with Ispinesib + Foretinib (first compound 0.01 µM); 0.928 in the assay with Ispinesib + Foretinib (first compound 0.03162 µM); 0.256 with Ispinesib + Foretinib (first compound 0.1 µM); 0.732 with Ispinesib + OSI-027 (first compound 0.001 µM). Besides, the relative viability worked out at 0.601 with Ispinesib + OSI-027 (first compound 0.003162 µM); 0.628 with Ispinesib + OSI-027 (first compound 0.01 µM); 0.182 in the assay with Ispinesib + OSI-027 (first compound 0.03162 µM); 0.229 in the assay with Ispinesib + OSI-027 (first compound 0.1 µM); 0.92 with Linsitinib + Tozasertib (first compound 0.01 µM); 0.895 with Linsitinib + Tozasertib (first compound 0.03162 µM). The figures for the relative viability with Linsitinib + Tozasertib (first compound 0.1 µM), in the assay with Linsitinib + Tozasertib (first compound 0.3162 µM) and with Linsitinib + Tozasertib (first compound 1 µM) were 0.927, 0.8 and 0.676, respectively.
For the cell line SW 900, the relative viability with Ispinesib + Foretinib (first compound 0.001 µM) worked out at 0.813; with Ispinesib + Foretinib (first compound 0.003162 µM), 0.76; in the assay with Ispinesib + Foretinib (first compound 0.01 µM) it was 0.927; in the assay with Ispinesib + Foretinib (first compound 0.03162 µM), 0.854; with Ispinesib + Foretinib (first compound 0.1 µM) it was 0.204; with Ispinesib + OSI-027 (first compound 0.001 µM), 0.751. In addition, the relative viability was 0.617 in the assay with Ispinesib + OSI-027 (first compound 0.003162 µM); 0.553 with Ispinesib + OSI-027 (first compound 0.01 µM); 0.345 with Ispinesib + OSI-027 (first compound 0.03162 µM); 0.225 with Ispinesib + OSI-027 (first compound 0.1 µM); 0.635 with Linsitinib + Tozasertib (first compound 0.01 µM); 0.598 in the assay with Linsitinib + Tozasertib (first compound 0.03162 µM). Moreover, the relative viability in the assay with Linsitinib + Tozasertib (first compound 0.1 µM) was 0.535; with Linsitinib + Tozasertib (first compound 0.3162 µM) it was 0.513; with Linsitinib + Tozasertib (first compound 1 µM), 0.342; with Ispinesib + AZD7762 (first compound 0.001 µM) it was 0.635; in the assay with Ispinesib + AZD7762 (first compound 0.003162 µM) it was 0.492; in the assay with Ispinesib + AZD7762 (first compound 0.01 µM) it was 0.648. Also, the relative viability is 0.565 with Ispinesib + AZD7762 (first compound 0.03162 µM) and 0.259 with Ispinesib + AZD7762 (first compound 0.1 µM).
Regarding NCI-H1793, the relative viability worked out at 0.711 with Ispinesib + Foretinib (first compound 0.001 µM); 0.585 in the assay with Ispinesib + Foretinib (first compound 0.003162 µM); 0.958 in the assay with Ispinesib + Foretinib (first compound 0.01 µM); 0.637 with Ispinesib + Foretinib (first compound 0.03162 µM); 0.194 with Ispinesib + Foretinib (first compound 0.1 µM); 0.275 with Ispinesib + OSI-027 (first compound 0.001 µM). The relative viability turned out to be 0.343 with Ispinesib + OSI-027 (first compound 0.003162 µM); 0.294 in the assay with Ispinesib + OSI-027 (first compound 0.01 µM); 0.22 with Ispinesib + OSI-027 (first compound 0.03162 µM); 0.16 with Ispinesib + OSI-027 (first compound 0.1 µM); 0.388 with Linsitinib + Tozasertib (first compound 0.01 µM); 0.454 with Linsitinib + Tozasertib (first compound 0.03162 µM). Further, the relative viability with Linsitinib + Tozasertib (first compound 0.1 µM) stood at 0.316; with Linsitinib + Tozasertib (first compound 0.3162 µM) it was 0.313; with Linsitinib + Tozasertib (first compound 1 µM), 0.274; with Ispinesib + AZD7762 (first compound 0.001 µM), 0.476; with Ispinesib + AZD7762 (first compound 0.003162 µM), 0.494; with Ispinesib + AZD7762 (first compound 0.01 µM), 0.352. Moreover, the relative viability was 0.412 in the assay with Ispinesib + AZD7762 (first compound 0.03162 µM) and 0.295 in the assay with Ispinesib + AZD7762 (first compound 0.1 µM).
As to NCI-H1299, the relative viability with Ispinesib + Foretinib (first compound 0.001 µM) stood at 1.14; with Ispinesib + Foretinib (first compound 0.003162 µM) it was 1.13; with Ispinesib + Foretinib (first compound 0.01 µM), 1.14; with Ispinesib + Foretinib (first compound 0.03162 µM), 1.09; with Ispinesib + Foretinib (first compound 0.1 µM), 0.584.
Turning to LCLC-97TM1, the relative viability in the assay with Ispinesib + Foretinib (first compound 0.001 µM) stood at 0.928; with Ispinesib + Foretinib (first compound 0.003162 µM), 0.948; with Ispinesib + Foretinib (first compound 0.01 µM) it was 0.933; with Ispinesib + Foretinib (first compound 0.03162 µM), 0.856; in the assay with Ispinesib + Foretinib (first compound 0.1 µM), 0.56; in the assay with Ispinesib + OSI-027 (first compound 0.001 µM), 0.629. Also, the relative viability was 0.616 with Ispinesib + OSI-027 (first compound 0.003162 µM); 0.553 with Ispinesib + OSI-027 (first compound 0.01 µM); 0.239 with Ispinesib + OSI-027 (first compound 0.03162 µM); 0.12 with Ispinesib + OSI-027 (first compound 0.1 µM); 0.193 with Linsitinib + Tozasertib (first compound 0.01 µM); 0.29 in the assay with Linsitinib + Tozasertib (first compound 0.03162 µM). The relative viability in the assay with Linsitinib + Tozasertib (first compound 0.1 µM) was 0.174; with Linsitinib + Tozasertib (first compound 0.3162 µM), 0.159; with Linsitinib + Tozasertib (first compound 1 µM) it was 0.257; in the assay with Ispinesib + AZD7762 (first compound 0.001 µM), 0.322; with Ispinesib + AZD7762 (first compound 0.003162 µM), 0.348; with Ispinesib + AZD7762 (first compound 0.01 µM), 0.326. The relative viability with Ispinesib + AZD7762 (first compound 0.03162 µM) was 0.247; in the assay with Ispinesib + AZD7762 (first compound 0.1 µM), 0.119.
With NCI-H1915, the relative viability in the assay with Ispinesib + Foretinib (first compound 0.001 µM) stood at 1.15; in the assay with Ispinesib + Foretinib (first compound 0.003162 µM) it was 1.16; with Ispinesib + Foretinib (first compound 0.01 µM), 1.33; in the assay with Ispinesib + Foretinib (first compound 0.03162 µM) it was 1.03; in the assay with Ispinesib + Foretinib (first compound 0.1 µM) it was 0.425; with Ispinesib + OSI-027 (first compound 0.001 µM), 0.679. Further, the relative viability worked out at 0.514 in the assay with Ispinesib + OSI-027 (first compound 0.003162 µM); 0.751 with Ispinesib + OSI-027 (first compound 0.01 µM); 0.252 with Ispinesib + OSI-027 (first compound 0.03162 µM); 0.212 in the assay with Ispinesib + OSI-027 (first compound 0.1 µM); 0.44 with Linsitinib + Tozasertib (first compound 0.01 µM); 0.477 with Linsitinib + Tozasertib (first compound 0.03162 µM). In addition, the relative viability with Linsitinib + Tozasertib (first compound 0.1 µM) amounted to 0.437; with Linsitinib + Tozasertib (first compound 0.3162 µM), 0.378; with Linsitinib + Tozasertib (first compound 1 µM), 0.353; with Ispinesib + AZD7762 (first compound 0.001 µM) it was 0.728; with Ispinesib + AZD7762 (first compound 0.003162 µM), 0.687; with Ispinesib + AZD7762 (first compound 0.01 µM), 0.748. Further, the relative viability is 0.451 in the assay with Ispinesib + AZD7762 (first compound 0.03162 µM) and 0.112 with Ispinesib + AZD7762 (first compound 0.1 µM).
On to NCI-H661, for which the relative viability is 0.943 with Ispinesib + Foretinib (first compound 0.001 µM); 1.03 in the assay with Ispinesib + Foretinib (first compound 0.003162 µM); 0.988 with Ispinesib + Foretinib (first compound 0.01 µM); 0.71 with Ispinesib + Foretinib (first compound 0.03162 µM); 0.27 in the assay with Ispinesib + Foretinib (first compound 0.1 µM); 0.744 with Ispinesib + OSI-027 (first compound 0.001 µM). The relative viability was found to be 0.831 with Ispinesib + OSI-027 (first compound 0.003162 µM); 0.721 with Ispinesib + OSI-027 (first compound 0.01 µM); 0.493 in the assay with Ispinesib + OSI-027 (first compound 0.03162 µM); 0.263 in the assay with Ispinesib + OSI-027 (first compound 0.1 µM); 0.361 with Linsitinib + Tozasertib (first compound 0.01 µM); 0.383 with Linsitinib + Tozasertib (first compound 0.03162 µM). Also, the relative viability in the assay with Linsitinib + Tozasertib (first compound 0.1 µM) was determined as 0.335; in the assay with Linsitinib + Tozasertib (first compound 0.3162 µM), 0.308; with Linsitinib + Tozasertib (first compound 1 µM), 0.368.
Turning to NCI-H2405, the relative viability with Ispinesib + Foretinib (first compound 0.001 µM) was determined as 1.04; in the assay with Ispinesib + Foretinib (first compound 0.003162 µM), 1.06; with Ispinesib + Foretinib (first compound 0.01 µM), 1.02; with Ispinesib + Foretinib (first compound 0.03162 µM) it was 1.07; with Ispinesib + Foretinib (first compound 0.1 µM), 0.978; in the assay with Ispinesib + OSI-027 (first compound 0.001 µM), 0.655. For the same cell line, the relative viability in the assay with Ispinesib + OSI-027 (first compound 0.003162 µM) was 0.657; in the assay with Ispinesib + OSI-027 (first compound 0.01 µM) it was 0.755; with Ispinesib + OSI-027 (first compound 0.03162 µM), 0.635; in the assay with Ispinesib + OSI-027 (first compound 0.1 µM), 0.389; with Linsitinib + Tozasertib (first compound 0.01 µM) it was 0.726; with Linsitinib + Tozasertib (first compound 0.03162 µM), 0.755. The relative viability with Linsitinib + Tozasertib (first compound 0.1 µM) turned out to be 0.729; in the assay with Linsitinib + Tozasertib (first compound 0.3162 µM) it was 0.666; in the assay with Linsitinib + Tozasertib (first compound 1 µM) it was 0.497; in the assay with Ispinesib + AZD7762 (first compound 0.001 µM), 0.867; in the assay with Ispinesib + AZD7762 (first compound 0.003162 µM), 0.791; with Ispinesib + AZD7762 (first compound 0.01 µM), 0.73. In addition, the relative viability with Ispinesib + AZD7762 (first compound 0.03162 µM) was 0.711; with Ispinesib + AZD7762 (first compound 0.1 µM) it was 0.363.
